Results on two compounds are retold here after patent publication US6951658B1, “Emu-based compositions for mental well-being and method of use” (Pearson Research & Development Limited, priority 2003, dated 2005).

The structures appear in SMILES notation.

The conditions of series [1]: multi-infarct dementia patients; cited from earlier work.
For series [2] the following is noted: subjects with age-related memory decline, 60 days of treatment; cited from earlier work.
For series [3] the following is noted: rats; cited from earlier work.
For series [4] the following is noted: humans; cited from earlier work.
Series [5] is described as follows: side effects in the Example 2 patient. It is filed as in vivo, human. The conditions noted are these: Example 2, person, oral. An excerpt:
Example 2 Mature human ingests 7 to 10 drops of emu oil per day, […].

As to `O=C(O)[C@@H]1CCC(O)=N1` [pyroglutamate, 2-oxo-pyrrolidone carboxylic acid], in series [1], the attention entry was “significant increase of attention”; the consolidation of memory result is reported as “statistically significant improvement”; the “psychological tests of short-term retrieval, long-term retrieval and long-term storage of memory” value was “improvement”. Further, the verbal memory functions entry in series [2] is on record as “effective in improving verbal memory functions”. Further, in series [3], the anti-anxiety effects result was “has anti-anxiety effects”; the memory and learning entry is “improves memory and learning”. The alcohol-induced memory deficits entry in series [4] is reported as “effective”.
Take `CC[C@H](C)C(=O)O[C@H]1C[C@@H](C)C=C2C=C[C@H](C)[C@H](CC[C@@H]3C[C@@H](O)CC(=O)O3)[C@H]21` [Mevocore]: the side effects entry in series [5] is recorded as “has suffered side effects, including hair loss”.
